Source: patent US20240148821A1, “PHARMACEUTICAL USE OF CYCLIC PEPTIDE COMPOUND” (CHUGAI SEIYAKU KABUSHIKI KAISHA, priority 2021, published 2024)
Numbered stars: 1 amine (or outer) side, 2 acyl side, 3 side chain; on linkers, the order of the positions; unused ones are H or OH. Bridge positions count the residues as written; N and C are the ends. Square brackets hold non-standard residues; d marks the D form. Peptide text beside a SMILES is read from it. * marks the point of attachment. hPhe(3-Cl-4-CF3) = N[C@@H](CCc1ccc(C(F)(F)F)c(Cl)c1)C(=O)O; hPhe(3-F,4-CF3) = N[C@@H](CCc1ccc(C(F)(F)F)c(F)c1)C(=O)O; NEtPhe(4-CF3) = CCN[C@@H](Cc1ccc(C(F)(F)F)cc1)C(=O)O; hPhe(4-CF3) = N[C@@H](CCc1ccc(C(F)(F)F)cc1)C(=O)O; 3Oxa8azabicyclo(3.2.1)octane = C1CC2COCC1N2*; NMePhe(4-Cl) = CN[C@@H](Cc1ccc(Cl)cc1)C(=O)O; NMePhe(4-F) = CN[C@@H](Cc1ccc(F)cc1)C(=O)O; NMedβ3hAla = C[C@H](CC(=O)[*:2])N(C)[*:1]; NMeGly(cPent) = CN[C@H](C(=O)O)C1CCCC1; NMeCha = CN[C@@H](CC1CCCCC1)C(=O)O; Hyp = O=C(O)[C@@H]1C[C@@H](O)CN1; NMeF = CN[C@@H](Cc1ccccc1)C(=O)O; NMeI = CC[C@H](C)[C@H](NC)C(=O)O; NMeD = CN[C@@H](CC(=O)O)C(=O)O; NMeL = CN[C@@H](CC(C)C)C(=O)O; NMehSer = CN[C@@H](CCO)C(=O)O; NMeV = CN[C@H](C(=O)O)C(C)C; Trifluoroethyl = FC(F)(F)C*; d(β3hA) = C[C@@H](N)CC(=O)O; NMeS = CN[C@@H](CO)C(=O)O; NMeA = CN[C@@H](C)C(=O)O; Piperidide = C1CCN(*)CC1; Ac5c = NC1(C(=O)O)CCCC1; Aze = O=C(O)[C@@H]1CCN1; Sar = CNCC(=O)O; Propyl = CCC*

Biological target: protein-protein interaction between Kras and SOS1 (biotin-tagged human Kras loaded with GDP, His-tagged human SOS1) (Homo sapiens (Human), UniProt P01116, G12D)
Assay: Protein-protein interaction inhibition between Kras and SOS1 (KrasG12D-SOS PPI) using AlphaScreen;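 note: kras produced in E. coli, Ni-coupled donor beads and streptavidin acceptor beads, excitation 680 nm with emission detected at 520–620 nm via singlet oxygen transfer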
Type: biochemical
Conditions: AlphaScreen; biotin-tagged human Kras loaded with GDP, His-tagged human SOS1; read-out: KRAS G12D-SOS PPI IC50

Going from `CC[C@H](C)[C@@H]1NC(=O)[C@H](CC(C)C)N(C)C(=O)C[C@@H](C)N(C)C(=O)[C@H](C2CCCC2)N(C)C(=O)C2(CCCC2)NC(=O)[C@@H]2CCCN2C(=O)[C@H](CCc2ccc(C(F)(F)F)c(F)c2)NC(=O)CN(C)C(=O)[C@H](C2CCCC2)N(C)C(=O)[C@@H]2CCN2C(=O)[C@H](C)N(C)C1=O` [Compound 386] (cyclo([Ac5c][NMeGly(cPent)][NMedβ3hAla][NMeL]I[NMeA][Aze][NMeGly(cPent)][Sar][hPhe(3-F,4-CF3)]P)) to `CC[C@H](C)[C@@H]1NC(=O)[C@H](CC(C)C)N(C)C(=O)C[C@@H](C(=O)N2CCCCC2)N(C)C(=O)[C@H]([C@@H](C)CC)N(C)C(=O)C2(CCCC2)NC(=O)[C@@H]2CCCN2C(=O)[C@H](CCc2ccc(C(F)(F)F)c(F)c2)NC(=O)CN(C)C(=O)[C@H](CC2CCCCC2)N(C)C(=O)[C@@H]2CCN2C(=O)[C@H](C)N(C)C1=O` [Compound 409] ([NMeL]I[NMeA][Aze][NMeCha][Sar][hPhe(3-F,4-CF3)]P[Ac5c][NMeI][NMeD]-Piperidide; lactam N-11), the IC50 falls from 10 nM to 2.4 nM (4.2-fold).

Compared with `CC[C@H](C)[C@@H]1NC(=O)[C@H](COCC(F)(F)F)N(C)C(=O)C[C@@H](C(=O)N2CCCCC2)N(C)C(=O)[C@H](C(C)C)N(C)C(=O)C2(CCCC2)NC(=O)[C@@H]2CCCN2C(=O)[C@H](CCc2ccc(C(F)(F)F)c(Cl)c2)NC(=O)CN(C)C(=O)[C@H](CC2CCCCC2)N(C)C(=O)[C@@H]2CCN2C(=O)[C@H](C)N(C)C1=O` [Compound 387] ([NMeS](Trifluoroethyl)I[NMeA][Aze][NMeCha][Sar][hPhe(3-Cl-4-CF3)]P[Ac5c][NMeV][NMeD]-Piperidide; lactam N-11), `CC[C@H](C)[C@@H]1NC(=O)[C@H](CCOC)N(C)C(=O)C[C@@H](C(=O)N2CCCCC2)N(C)C(=O)[C@H](C(C)C)N(C)C(=O)C2(CCCC2)NC(=O)[C@@H]2CCCN2C(=O)[C@H](CCc2ccc(C(F)(F)F)c(Cl)c2)NC(=O)CN(C)C(=O)[C@H](CC2CCCCC2)N(C)C(=O)[C@@H]2CCN2C(=O)[C@H](C)N(C)C1=O` [Compound 397] ([NMehSer](Me)I[NMeA][Aze][NMeCha][Sar][hPhe(3-Cl-4-CF3)]P[Ac5c][NMeV][NMeD]-Piperidide; lactam N-11) is 1.8-fold lower in IC50: 4.2 nM for the first, 2.3 nM for the second.

First: CC[C@H](C)[C@@H]1NC(=O)[C@H](CC(C)C)N(C)C(=O)C[C@@H](C(=O)N2CCCCC2)N(C)C(=O)[C@H](C2CCCC2)N(C)C(=O)C2(CCCC2)NC(=O)[C@@H]2CCCN2C(=O)[C@H](CCc2ccc(C(F)(F)F)c(Cl)c2)NC(=O)CN(C)C(=O)[C@H](Cc2ccc(F)cc2)N(C)C(=O)[C@@H]2CCN2C(=O)[C@H](C)N(C)C1=O [Compound 388] ([NMeL]I[NMeA][Aze][NMePhe(4-F)][Sar][hPhe(3-Cl-4-CF3)]P[Ac5c][NMeGly(cPent)][NMeD]-Piperidide; lactam N-11)
Second: CCO[C@@H]1C[C@H]2C(=O)NC3(CCCC3)C(=O)N(C)[C@@H](C3CCCC3)C(=O)N(C)[C@H](C)CC(=O)N(C)[C@@H](CC(C)C)C(=O)N[C@@H]([C@@H](C)CC)C(=O)N[C@@H](C)C(=O)N3CC[C@H]3C(=O)N(CC)[C@@H](Cc3ccc(C(F)(F)F)cc3)C(=O)N(C)CC(=O)N[C@@H](CCc3ccc(C(F)(F)F)c(Cl)c3)C(=O)N2C1 [Compound 401] (cyclo(A[Aze][NEtPhe(4-CF3)][Sar][hPhe(3-Cl-4-CF3)][Hyp](Et)[Ac5c][NMeGly(cPent)][NMedβ3hAla][NMeL]I))
The IC50 of the first is 7.2-fold lower: 0.5 nM for the first, 3.6 nM for the second. The first is the more potent here.

Compared with `CC[C@H](C)[C@@H]1NC(=O)[C@H](C)NC(=O)C[C@@H](C)N(C)C(=O)[C@H](CC(C)C)N(C)C(=O)[C@H](Cc2ccccc2)N(C)C(=O)[C@H](CC(C)C)NC(=O)[C@H](CCc2ccc(C(F)(F)F)cc2)NC(=O)CN(C)C(=O)[C@H](Cc2ccc(Cl)cc2)N(C)C(=O)CN(C)C(=O)CN(C)C1=O` [Compound 406] (cyclo(AI[Sar][Sar][NMePhe(4-Cl)][Sar][hPhe(4-CF3)]L[NMeF][NMeL][NMedβ3hAla])), `CCCOC[C@H]1C(=O)N(C)CC(=O)N[C@@H](CCc2ccc(C(F)(F)F)c(F)c2)C(=O)N2CCC[C@H]2C(=O)NC2(CCCC2)C(=O)N(C)[C@@H]([C@@H](C)CC)C(=O)N(C)[C@H](C(=O)N2C3CCC2COC3)CC(=O)N(C)[C@@H](CC(C)C)C(=O)N[C@@H]([C@@H](C)CC)C(=O)N(C)[C@@H](C)C(=O)N2CC[C@H]2C(=O)N1C` [Compound 408] ([NMeL]I[NMeA][Aze][NMeS](Propyl)[Sar][hPhe(3-F,4-CF3)]P[Ac5c][NMeI][NMeD]-{3Oxa8azabicyclo(3.2.1)octane}; lactam N-11) is 23-fold lower in IC50: 250 nM for the first, 11 nM for the second. The second is the more potent here.

`CC[C@H](C)[C@@H]1NC(=O)[C@H](C)N(C)C(=O)C[C@@H](C)NC(=O)[C@H](C(C)C)N(C)C(=O)C2(CCCC2)NC(=O)[C@@H]2CCCN2C(=O)[C@H](CCc2ccc(C(F)(F)F)c(Cl)c2)NC(=O)[C@H]2CCCN2C(=O)[C@H](CC2CCCCC2)N(C)C(=O)CN(C)C(=O)CN(C)C1=O` [Compound 412] (cyclo([Ac5c][NMeV][d(β3hA)][NMeA]I[Sar][Sar][NMeCha][dP][hPhe(3-Cl-4-CF3)]P)) gave an IC50 of 120 nM.
